Patent publication US12018267B2, “Plants having increased tolerance to herbicides” (BASF SE, priority 2015, dated 2024)
Several values for one entry are separate records, joined by “and”; a condition that tells them apart may be missing. Equal values may be shown once.

Key:
[1] = system: wild type rice materials (O. sativa M2 Volano); test: Greenhouse foliar application, crop injury on wild type rice materials (Tables E10-1, E10-2); type: in vivo, Oryza sativa; conditions: wild type rice (OsCESA WT)
Excerpt: Oryza sativa M2 Volano is a cellulose biosynthesis inhibitor susceptible rice risotto population that was subjected to sodium azide seed mutagenesis but was not tilled nor selected for CESA mutations. O. sativa Volano-M3-CESA1 and CESA3 mutants were selected from a subpopulation of O. sativa M2 Volano by sequencing CESA gene sequences in M2 plants and maintaining (producing seed through selfing) those individuals containing key mutations in these genes. The tolerance of the M3 CESA1 and CESA3 mutants was assessed using 6-(1-fluorocyclopentyl)-N2-(2,3,5,6-tetrafluorophenyl)-1,3,5-triazine-2,4-diamine, together with 1.0% DASH® EC adjuvant (BASF). The tolerance of M4 CESA1 and CESA3 mutants was assessed using 6-cyclopentyl-N4-(2,3,4,5,6-pentafluorophenyl)-1,3,5-triazine-2,4-diamine, together with 1.0% DASH® EC adjuvant (BASF).
M3 seed, which were harvested from tilled and selected individuals containing mutations in the CESA1 and CESA3 genes, were grown in the greenhouse under natural light conditions supplemented with 400 W sodium halide lamps under a 16 hr day length. Day/night temperatures were 26 and 20° C., respectively. The number of M3 plants from each line varied between 2 and 16, depending on seed availability and germination. A non-selective CBI, azine 6-(1-fluorocyclopentyl)-N2-(2,3,5,6-tetrafluorophenyl)-1,3,5-triazine-2,4-diamine, formulated with 1.0% DASH in a water volume of 375 L/ha was applied early post-emergent (one to two leaf stage) at a rate of 250 g ai/ha to M3 CESA1 and CESA3 mutant rice plants growing in soil in the greenhouse. Only plants originating from lines having more than four seeds were subjected to herbicide treatment. CESA mutant lines with four or fewer seeds were selfed for an additional generation and then tested at the M4 generation with 6-cyclopentyl-N4-(2,3,4,5,6-pentafluorophenyl)-1,3,5-triazine-2,4-diamine. M4 plants were grown under similar conditions as M3 plants and treated with 250 g ai/ha or 500 g ai/ha of 6-cyclopentyl-N4-(2,3,4,5,6-pentafluorophenyl)-1,3,5-triazine-2,4-diamine. Previous kill curve greenhouse tests had identified that a rate of 250 g ai/ha of 6-(1-fluorocyclopentyl)-N2-(2,3,5,6-tetrafluorophenyl)-1,3,5-triazine-2,4-diamine and a rate of 250 g ai/ha 6-cyclopentyl-N4-(2,3,4,5,6-pentafluorophenyl)-1,3,5-triazine-2,4-diamine, both with 1.0% DASH, were sufficient doses to kill O. sativa M2 Volano check plants. […] Plants were assessed for crop injury, using a scale from 0% injury to 100% injury, at 11 and 21 days after treatment (DAT) for M3 plants applied with 6-(1-fluorocyclopentyl)-N2-(2,3,5,6-tetrafluorophenyl)-1,3,5-triazine-2,4-diamine and 36 DAT for M4 plants applied with 6-cyclopentyl-N4-(2,3,4,5,6-pentafluorophenyl)-1,3,5-triazine-2,4-diamine. Plants without any symptoms were recorded as “0%” injury. Increasing levels of reduced leaf mass and reduced stalk stiffness, with respect to the untreated control plants, were recorded in the range of “1 to 49%” injury. Increasing levels of leaf abnormalities and leaf necrosis, along with increased levels of lodging, relative to the untreated control plants, were recorded in the range of “50 to 85%” injury. Dead or dying plants with necrosis of the apex and severe lodging were recorded between “86-100%”. Data on individual plants was assessed and recorded due to the low number of individuals per line and the fact that the CESA mutations in the M2 generation were heterozygous and therefore segregating at the M3 and M4 generations. […]

[2] = system: O. sativa M2 Volano check plants; test: Previous kill curve greenhouse tests on rice check plants; type: in vivo, Oryza sativa; conditions: with 1.0% DASH
Description: M3 seed, which were harvested from tilled and selected individuals containing mutations in the CESA1 and CESA3 genes, were grown in the greenhouse under natural light conditions supplemented with 400 W sodium halide lamps under a 16 hr day length. Day/night temperatures were 26 and 20° C., respectively. The number of M3 plants from each line varied between 2 and 16, depending on seed availability and germination. […] Plants were assessed for crop injury, using a scale from 0% injury to 100% injury, at 11 and 21 days after treatment (DAT) for M3 plants applied with 6-(1-fluorocyclopentyl)-N2-(2,3,5,6-tetrafluorophenyl)-1,3,5-triazine-2,4-diamine and 36 DAT for M4 plants applied with 6-cyclopentyl-N4-(2,3,4,5,6-pentafluorophenyl)-1,3,5-triazine-2,4-diamine. Plants without any symptoms were recorded as “0%” injury. Increasing levels of reduced leaf mass and reduced stalk stiffness, with respect to the untreated control plants, were recorded in the range of “1 to 49%” injury. Increasing levels of leaf abnormalities and leaf necrosis, along with increased levels of lodging, relative to the untreated control plants, were recorded in the range of “50 to 85%” injury. Dead or dying plants with necrosis of the apex and severe lodging were recorded between “86-100%”. […]

Structure (SMILES) | Crop Injury Assessment (%) at 20 DAT ([1]; foliar application 250 g ai/ha, 20 DAT) [%] | rate sufficient to kill O. sativa M2 Volano check plants [2] [g ai/ha] | Crop injury assessment (%) at 23 DAT ([1]; foliar application 250 g ai/ha) | Crop injury assessment (%) at 36 DAT ([1]; foliar application 250 g ai/ha) | Crop injury assessment (%) at 23 DAT ([1]; foliar application 500 g ai/ha) | Crop injury assessment (%) at 36 DAT ([1]; foliar application 500 g ai/ha) [%]
Nc1nc(Nc2c(F)c(F)cc(F)c2F)nc(C2(F)CCCC2)n1 [6-(1-fluorocyclopentyl)-N2-(2,3,5,6-tetrafluorophenyl)-1,3,5-triazine-2,4-diamine] | 100 | 250 |  |  |  | 
Nc1nc(Nc2c(F)c(F)c(F)c(F)c2F)nc(C2CCCC2)n1 [6-cyclopentyl-N4-(2,3,4,5,6-pentafluorophenyl)-1,3,5-triazine-2,4-diamine] |  | 250 | 75% and 65% | 70% and 95% | 98% and 95% | 100
